The target in test [1] is T1, WRN (Homo sapiens, UniProt Q14191).
T1 construct: A His-tagged construct of WRN (AA S2-S1235) was produced and used for the ATPase assay; His; made in house; host or cells: Sf9 insect cells (baculovirus, pFastBac1)
In words: WRN Helicase activity assay (fluorescence DNA unwinding). Type of test: biochemical. The settings on record: 1-hr pre-incubation with enzyme; 100 μM ATP, 25 nM forked dsDNA, 1 nM WRN; geometric mean of at least 2 replicates. How it is done:
Compounds of the examples were tested for WRN helicase activity. DNA encoding the target protein, 6×HIS-TEV-WRN-517-945, was produced, cloned and transfected as detailed in Example D. To determine the inhibitory properties of the compounds, a 384 wells plate-based Helicase assay was set up to measure the extent of DNA unwinding (Helicase) activity of WRN. The WRN Helicase assay was designed to measure increase in fluorescence signal using a fluorescence based, donor-quencher paired forked dsDNA oligomer substrate (custom synthesis from Sigma-Aldrich) prepared by annealing equal amounts of oligo GPat-1 ([BHQ2][…]) and oligo GPat-2 ([…][TAM]). Continuous measurement of fluorescent signal was used to optimize the buffer conditions, concentration of enzyme (WRN), concentration of substrates (ATP & dsDNA), and the linearity of the Helicase reaction. All solutions were prepared in the following assay buffer: 50 mM Tris-HCl, pH-7.5, 2 mM MgCl2, 50 mM NaCl, 1 mM EGTA, 0.01% P-20, 0.05% BSA, and 2 mM DTT prepared with nuclease free water.
A serial dilution (1:3 scheme) of the compounds was prepared in neat DMSO and 100 nL of the compounds was dispensed in the Greiner black low volume (Greiner #784076) 384 wells assay plate. An 1-hr pre-incubation of the compounds with enzyme was included. A His-tagged construct of WRN (AA S2-S1235) was produced and used for the ATPase assay. Maximum inhibition control wells were set up with the addition of only assay buffer, and no inhibition control wells were set up with neat DMSO without test compounds. The reaction was initiated by addition of 5 μL substrate mix (200 μM ultrapure ATP, and 50 nM dsDNA prepared in assay buffer) and incubated at 25° C. for 35 min. A typical Helicase reaction consists of 25 nM forked dsDNA, 100 μM ATP, and 1 nM WRN prepared in assay buffer. The WRN Helicase reaction was quenched by the addition of 5 μL ‘STOP’ solution containing 100 mM EDTA (final EDTA concentration 33.33 mM) prepared in assay buffer. The plates were read on BMG PHERAstar FSX using 540/590 module to measure an increase of fluorescence. Data analysis was carried out using the Genedata software following % of control normalization. Fitting parameters include dose response IC50, Hill slope (n), maximum inhibition (S∞), and minimum inhibition (S0). The reported IC50 values for compounds in this invention are the geometric means of at least 2 independent replicates.

Test [2] deals with T1, WRN. In words: WRN ATPase activity assay (ADP-Glo). The test is classed as biochemical. Conditions: 1-hr pre-incubation with enzyme; 100 μM ATP, 25 nM forked dsDNA, 1 nM WRN; geometric mean of at least 2 replicates. How it is done: Compounds of the Examples were tested for WRN ATPase activity. WRN ATPase activity catalyzes ATP hydrolysis to produce ADP and phosphate. DNA encoding the target protein, 6×HIS-TEV-WRN-517-945, was produced, cloned and transfected as detailed in Example D. The amount of ADP produced was measured using ADP-Glo™ Kinase Assay kit from Promega Corporation in a Greiner white regular volume 384 wells assay plate (Greiner #781075). Data was normalized to a standard curve generated using various ADP concentrations and the corresponding luminescent signal intensities at each concentration. The assay conditions were optimized for enzyme concentration (WRN), substrate concentrations (ATP & dsDNA), and the linearity of the ATPase reaction, in the following assay buffer: 50 mM Tris-HCl, pH-7.5, 2 mM MgCl2, 50 mM NaCl, 1 mM EGTA, 0.01% P-20, 0.05% BSA, and 2 mM DTT prepared with nuclease free water.
A serial dilution (1:3 scheme) of the compounds were prepared in neat DMSO, with 100 nL of the compounds dispensed in the 384 wells assay plate. An 1-hr pre-incubation of the compounds with enzyme was included. A His-tagged construct of WRN (AA S2-S1235) was produced and used for the ATPase assay. Maximum inhibition control wells were set up with the addition of only assay buffer, and no inhibition control wells were set up with neat DMSO without test compounds. The reaction was initiated by addition of 5 μL substrate mix (200 μM ultrapure ATP, and 50 nM dsDNA prepared in assay buffer) and incubated at 25° C. for 35 min. A forked dsDNA oligomer substrate was prepared by annealing equal amounts of oligo GPat-1 ([BHQ2][…]) and oligo GPat-2 ([…][TAM]) and was used as dsDNA substrate for WRN ATPase assay. A typical ATPase reaction consists of 25 nM forked dsDNA, 100 μM ATP, and 1 nM WRN prepared in assay buffer. The WRN ATPase reaction was stopped by the addition of 5 μL of ADP-Glo Reagent from ADP-Glo™ Kinase Assay kit and incubated for 40 min to deplete the unreacted ATP. Afterwards, 5 μL of Kinase Detection Reagent from the ADP-Glo™ Kinase Assay kit was added and incubated for 1 hr for the development of luminescence signal.
Luminesce signals were measured on BMG PHERAstar FSX using luminescence protocol. Data analysis was carried out using Genedata software following % of control normalization. Fitting parameters include dose response IC50, Hill slope (n), maximum inhibition (S∞), and minimum inhibition (S0). The reported IC50 values for compounds in this invention are the geometric means of at least 2 independent replicates.
In general terms: ADP-Glo turns the ADP formed in a reaction into a luminescent signal.

From US20250215006A1, “TRICYCLIC COMPOUNDS AS INHIBITORS OF WRN” (Incyte Corporation, priority 2023, published 2025) come the findings set out here.

The structures appear in SMILES notation.

T1 sequence (Q14191 2-1235): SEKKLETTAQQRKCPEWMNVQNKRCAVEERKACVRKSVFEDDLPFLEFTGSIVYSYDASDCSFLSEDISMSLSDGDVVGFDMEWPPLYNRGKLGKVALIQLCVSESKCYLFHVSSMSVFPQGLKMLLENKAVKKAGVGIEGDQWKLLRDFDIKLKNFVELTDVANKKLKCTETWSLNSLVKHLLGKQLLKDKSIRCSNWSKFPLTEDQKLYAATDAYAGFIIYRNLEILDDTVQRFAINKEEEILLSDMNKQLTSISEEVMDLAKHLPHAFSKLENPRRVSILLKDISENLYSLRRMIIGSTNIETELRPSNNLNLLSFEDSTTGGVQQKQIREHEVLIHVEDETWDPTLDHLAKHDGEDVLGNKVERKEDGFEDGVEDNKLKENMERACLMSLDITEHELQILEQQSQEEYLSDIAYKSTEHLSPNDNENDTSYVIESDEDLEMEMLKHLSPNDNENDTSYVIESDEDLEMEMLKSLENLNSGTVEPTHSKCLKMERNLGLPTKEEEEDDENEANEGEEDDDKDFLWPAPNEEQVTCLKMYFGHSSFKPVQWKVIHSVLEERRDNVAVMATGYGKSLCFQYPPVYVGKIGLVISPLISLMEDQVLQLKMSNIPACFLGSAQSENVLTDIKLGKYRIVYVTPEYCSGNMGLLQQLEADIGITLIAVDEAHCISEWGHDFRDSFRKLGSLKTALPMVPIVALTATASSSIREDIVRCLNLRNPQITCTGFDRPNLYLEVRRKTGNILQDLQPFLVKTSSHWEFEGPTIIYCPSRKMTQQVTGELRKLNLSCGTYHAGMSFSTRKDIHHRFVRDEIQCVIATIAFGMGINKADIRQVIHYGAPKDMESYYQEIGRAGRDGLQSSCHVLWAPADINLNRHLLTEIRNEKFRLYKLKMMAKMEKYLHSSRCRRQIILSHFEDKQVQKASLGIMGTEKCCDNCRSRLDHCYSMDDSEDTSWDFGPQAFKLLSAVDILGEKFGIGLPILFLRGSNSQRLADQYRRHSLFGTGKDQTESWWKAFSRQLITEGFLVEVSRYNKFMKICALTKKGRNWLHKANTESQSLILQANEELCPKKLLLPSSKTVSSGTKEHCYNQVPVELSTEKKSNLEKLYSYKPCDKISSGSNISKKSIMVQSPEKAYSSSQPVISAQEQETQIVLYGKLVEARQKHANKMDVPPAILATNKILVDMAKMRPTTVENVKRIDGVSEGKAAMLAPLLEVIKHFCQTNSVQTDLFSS

Regarding `C=CC(=O)Nc1nn(C)cc1-c1c(CC)nc2n(CC(=O)Nc3ccc(C(F)(F)F)cc3)c3ccccc3n2c1=O` [Example 16, N-(4-(2-Ethyl-4-oxo-10-(2-oxo-2-((4-(trifluoromethyl)phenyl)amino)ethyl)-4,10-dihydrobenzo[4,5]imidazo[1,2-a]pyrimidin-3-yl)-1-methyl-1H-pyrazol-3-yl)acrylamide], the IC50 in test [1] fell in the range of 5 to 20 µM; in test [2], 1 to 5 µM.
In the case of `C=CC(=O)Nc1ccccc1-c1c(CC)nc2n(CC(=O)Nc3ccc(F)c(F)c3)c3cc(OC)ccc3n2c1=O` [Example 17, N-(2-(10-(2-((3,4-Difluorophenyl)amino)-2-oxoethyl)-2-ethyl-8-methoxy-4-oxo-4,10-dihydrobenzo[4,5]imidazo[1,2-a]pyrimidin-3-yl)phenyl)acrylamide], the IC50 in test [1] and in test [2] was 0.1 to 0.5 µM each time.
Take `C=CC(=O)Nc1ccccc1-c1c(CC)nc2n(CC(=O)Nc3ccc(F)cc3)c3cc(C)c(C)cc3n2c1=O` [Example 18, N-(2-(2-Ethyl-10-(2-((4-fluorophenyl)amino)-2-oxoethyl)-7,8-dimethyl-4-oxo-4,10-dihydrobenzo[4,5]imidazo[1,2-a]pyrimidin-3-yl)phenyl)acrylamide]: the IC50 is 5 to 20 µM in test [1] and 1 to 5 µM in test [2].
For `C=CC(=O)Nc1ccccc1-c1c(CC)nc2n(CC(=O)Nc3ccc(C(F)(F)F)cc3)c3c(OC)cccc3n2c1=O` [Example 19, N-(2-(2-Ethyl-9-methoxy-4-oxo-10-(2-oxo-2-((4-(trifluoromethyl)phenyl)amino)ethyl)-4,10-dihydrobenzo[4,5]imidazo[1,2-a]pyrimidin-3-yl)phenyl)acrylamide], in that order: under 0.1 µM and under 0.1 µM.
The like results for `C=CC(=O)Nc1ccccc1-c1c(CC)nc2n(CC(=O)Nc3ccc(C(F)(F)F)cc3)c3ncccc3n2c1=O` [Example 20, N-(2-(8-Ethyl-6-oxo-10-(2-oxo-2-((4-(trifluoromethyl)phenyl)amino)ethyl)-6,10-dihydropyrido[2′,3′: 4,5]imidazo[1,2-a]pyrimidin-7-yl)phenyl)acrylamide] were, in that order, 0.1 to 0.5 µM and 0.1 to 0.5 µM.
For `C=CS(=O)(=O)Nc1ccccc1-c1c(CC)nc2n(CC(=O)Nc3ccc(C(F)(F)F)cc3)c3ccccc3n2c1=O` [Example 21, 2-(2-Ethyl-4-oxo-3-(2-(vinylsulfonamido)phenyl)benzo[4,5]imidazo[1,2-a]pyrimidin-10(4H)-yl)-N-(4-(trifluoromethyl)phenyl)acetamide], the IC50 in test [1] and in test [2] was under 0.1 µM in each case.
On to `C=CC(=O)Nc1ccccc1-c1c(CC)nc2n(CC(=O)Nc3ccc(C(F)(F)F)cc3)c3c(n2c1=O)CCCC3` [Example 22, N-(2-(2-ethyl-4-oxo-10-(2-oxo-2-((4-(trifluoromethyl)phenyl)amino)ethyl)-4,6,7,8,9,10-hexahydrobenzo[4,5]imidazo[1,2-a]pyrimidin-3-yl)phenyl)acrylamide], for which the IC50 in test [1] and in test [2] was under 0.1 µM throughout.
`C=CS(=O)(=O)Nc1ccccc1-c1c(CC)nc2n(CC(=O)Nc3ccc(C(F)(F)F)cc3)c3c(n2c1=O)CCCC3` [Example 23, 2-(2-Ethyl-4-oxo-3-(2-(vinylsulfonamido)phenyl)-6,7,8,9-tetrahydrobenzo[4,5]imidazo[1,2-a]pyrimidin-10(4H)-yl)-N-(4-(trifluoromethyl)phenyl)acetamide]: the IC50 in test [1] and in test [2] was under 0.1 µM in each case.
In the case of `C=CS(=O)(=O)Nc1ccccc1-c1c(CC)c(C#N)c2n(CC(=O)Nc3ccc(C(F)(F)F)cc3)c3ccccc3n2c1=O` [Example 24, 2-(4-Cyano-3-ethyl-1-oxo-2-(2-(vinylsulfonamido)phenyl)benzo[4,5]imidazo[1,2-a]pyridin-5(1H)-yl)-N-(4-(trifluoromethyl)phenyl)acetamide], the 50% inhibitory concentration (IC50) in test [1] and in test [2] was 0.1 to 0.5 µM each time.
`C=CC(=O)Nc1ccccc1-c1c(CC)c(C#N)c2n(CC(=O)Nc3ccc(C(F)(F)F)cc3)c3ccccc3n2c1=O` [Example 25, N-(2-(4-Cyano-3-ethyl-1-oxo-5-(2-oxo-2-((4-(trifluoromethyl)phenyl)amino)ethyl)-1,5-dihydrobenzo[4,5]imidazo[1,2-a]pyridin-2-yl)phenyl)acrylamide]: the IC50 in test [1] and in test [2] was 0.1 to 0.5 µM throughout.
For the compound `C=CC(=O)Nc1ccccc1-c1c(CC)cc2n(CC(=O)Nc3ccc(C(F)(F)F)cc3)c3ccccc3n2c1=O` [Example 26, N-(2-(3-Ethyl-1-oxo-5-(2-oxo-2-((4-(trifluoromethyl)phenyl)amino)ethyl)-1,5-dihydrobenzo[4,5]imidazo[1,2-a]pyridin-2-yl)phenyl)acrylamide], the IC50 in test [1] was under 0.1 µM; in test [2], 0.1 to 0.5 µM.

By IC50 is commonly meant the concentration that inhibits the measured activity by half.
